Results from patent US20230339970A1, “CASEIN KINASE 1 DELTA MODULATORS” (priority 2020, published 2023).
pIC50: −log10 of the molar value.

Experiments:
human CSNK1D = biological target: T1, human CSNK1D (Homo sapiens, UniProt P48730); assay: Whole Cell nBRET CSNK1D Binding Assay; conditions: living CHO cells stably expressing human CSNK1D tagged with nanoluciferase; NanoBret tracer 130 nM; 2 hours at 37 C
T1 construct: expressed in transfected cells

[1] = biological target: T2, human recombinant GST cleaved CSNK1D (Homo sapiens, UniProt P48730); assay: Purified Enzyme Assay (ADP-Glo CSNK1D Kinase Assay); type: biochemical; conditions: 2 nM CSNK1D; peptide substrate 150 μM; ATP 20 μM; 45 minutes at room temperature
T2 construct: GST (cleaved yes); purchased University of Dundee clone DU 19064
T2 sequence (P48730 whole entry): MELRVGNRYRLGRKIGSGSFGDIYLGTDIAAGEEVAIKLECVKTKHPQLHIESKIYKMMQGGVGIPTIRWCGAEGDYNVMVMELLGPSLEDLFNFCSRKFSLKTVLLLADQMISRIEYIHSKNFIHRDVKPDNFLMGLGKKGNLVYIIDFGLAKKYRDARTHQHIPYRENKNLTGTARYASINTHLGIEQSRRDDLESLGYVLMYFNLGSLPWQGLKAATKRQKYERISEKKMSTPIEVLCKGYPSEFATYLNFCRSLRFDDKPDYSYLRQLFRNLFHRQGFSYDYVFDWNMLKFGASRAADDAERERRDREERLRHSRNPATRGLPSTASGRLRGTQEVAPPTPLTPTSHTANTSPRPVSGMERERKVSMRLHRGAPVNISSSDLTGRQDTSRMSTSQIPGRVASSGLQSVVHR
Experimental: In this assay, CSNK1D phosphorylates a substrate peptide PLSRTL-pS-VASLPGL in the presence of ATP. […] This assay monitors CSNK1D kinase activity by measuring the amount of ADP produced in the assay.
The substrate mix is added to each well of a low volume, 384-well, white opaque plate. Test compounds were diluted in HBSS and added in a dose-response to the plate.
The total volume of each reaction is 5 ul (2 μL of substrate mix, 1 μL of diluted compounds, and 2 μL of human recombinant CSNK1D). The plates are incubated for 45 minutes at room temperature.
ADP was quantified using the ADP-Glo™ Kinase Assay. ADP-Glo Reagent (5 μL) was added to each well. After a 1 hour incubation at room temperature, Kinase Detection Reagent (10 μL) was added to each well and incubated for 30 minutes. […] The raw data from the Envision is used to calculate percent activity.

T1 sequence (P48730 whole entry): as above

Compound | pIC50 (human CSNK1D) | pIC50 [1]
CC1(C(F)(F)F)Cn2nc(-c3ccc(F)cn3)c(-c3ccnc4[nH]ncc34)c2CO1 (centres unmarked) [Example 176, 2-(5-Fluoropyridin-2-yl)-6-methyl-3-(1H-pyrazolo[3,4-b]pyridin-4-yl)-6-(trifluoromethyl)-6,7-dihydro-4H-pyrazolo[5,1-c][1,4]oxazine] | 6.70 | 8.15
COC[C@@]1(F)CCc2c(-c3cc(C)nc4[nH]ncc34)c(-c3ccc(F)cn3)nn2C1 (single isomer, unassigned) [Example 54, (*R)-4-(6-Fluoro-2-(5-fluoropyridin-2-yl)-6-(methoxymethyl)-4,5,6,7-tetrahydropyrazolo[1,5-a]pyridin-3-yl)-6-methyl-1H-pyrazolo[3,4-b]pyridine] | 5.43 | 7.08
COCC1(F)CCc2c(-c3cc(C)nc4[nH]ccc34)c(-c3ccc(F)cn3)nn2C1 (single isomer, unassigned) [Example 299, (*R)-4-[6-Fluoro-2-(5-fluoro-2-pyridyl)-6-(methoxymethyl)-5,7-dihydro-4H-pyrazolo[1,5-a]pyridin-3-yl]-6-methyl-1H-pyrrolo[2,3-b]pyridine] | 6.52 | 7.70
Cc1cc(-c2c(-c3nccs3)nn3c2CCCC3)c2cn[nH]c2n1 [Example 30, 2-(3-(6-Methyl-1H-pyrazolo[3,4-b]pyridin-4-yl)-4,5,6,7-tetrahydropyrazolo[1,5-a]pyridin-2-yl)thiazole] | 6.12 | 7.55
CC1COc2c(-c3ccnc4[nH]ncc34)c(-c3ccc(F)cn3)nn2C1 (centres unmarked) [Example 196, 2-(5-Fluoropyridin-2-yl)-6-methyl-3-(1H-pyrazolo[3,4-b]pyridin-4-yl)-6,7-dihydro-5H-pyrazolo[5,1-b][1,3]oxazine] | 7.40 | 8.70
Cc1cc(-c2c(-c3ccc(F)cn3)nn3c2C2CC2C3)c2cn[nH]c2n1 (racemic) [Example 24, 2-(5-Fluoropyridin-2-yl)-3-(6-methyl-1H-pyrazolo[3,4-b]pyridin-4-yl)-3b,4,4a,5-tetrahydrocyclopropa[3,4]pyrrolo[1,2-b]pyrazole] | 7.26 | 8.40
Cc1cc(-c2c(-c3cscn3)nn3c2COC(C)(C)C3)c2cn[nH]c2n1 [Example 125, 6,6-Dimethyl-3-(6-methyl-1H-pyrazolo[3,4-b]pyridin-4-yl)-2-(thiazol-4-yl)-6,7-dihydro-4H-pyrazolo[5,1-c][1,4]oxazine] | 6.57 | 7.92
COC[C@@]1(C)CCc2c(-c3cc(C)nc4[nH]ncc34)c(-c3ccc(F)cn3)nn2C1 (single isomer, unassigned) [Example 55, (*S)-4-(2-(5-Fluoropyridin-2-yl)-6-(methoxymethyl)-6-methyl-4,5,6,7-tetrahydropyrazolo[1,5-a]pyridin-3-yl)-6-methyl-1H-pyrazolo[3,4-b]pyridine] | 6.90 | 8.52
Fc1ccc(-c2nn3c(c2-c2ccnc4[nH]ncc24)CC2(C3)CC2(F)F)nc1 (single isomer, unassigned) [Example 255, (*R)-1′.1′-Difluoro-2-(5-fluoro-2-pyridyl)-3-(1H-pyrazolo[3,4-b]pyridin-4-yl)spiro[4,6-dihydropyrrolo[1,2-b]pyrazole-5,2′-cyclopropane]] | 5.71 | 7.18
C[C@@]1(C(F)(F)F)Cn2nc(-c3ccc(F)cn3)c(-c3ccnc4[nH]ncc34)c2CO1 (single isomer, unassigned) [Example 177, (*S)-2-(5-Fluoropyridin-2-yl)-6-methyl-3-(1H-pyrazolo[3,4-b]pyridin-4-yl)-6-(trifluoromethyl)-6,7-dihydro-4H-pyrazolo[5,1-c][1,4]oxazine] | 7.36 | 8.52
CC(=O)Nc1cc(-c2c(-c3ccc(F)cn3)nn3c2CC[C@@H]2[C@H]3C2(F)F)ccn1 (stereo in doubt) [Example 352, N-(4-((5a*R,6a*S)-6,6-Difluoro-2-(5-fluoropyridin-2-yl)-5,5a,6,6a-tetrahydro-4H-cyclopropa[e]pyrazolo[1,5-a]pyridin-3-yl)pyridin-2-yl)acetamide] | 5.89 | 7.30
Cc1nc2[nH]nc(Cl)c2c(-c2c(-c3ccc(F)cn3)nn3c2CCC3)c1F [Example 224, 3-Chloro-5-fluoro-4-(2-(5-fluoropyridin-2-yl)-5,6-dihydro-4H-pyrrolo[1,2-b]pyrazol-3-yl)-6-methyl-1H-pyrazolo[3,4-b]pyridine] | 8.30 | 8.40
Cc1n[nH]c2nc(C(F)F)cc(-c3c(-c4ccc(F)cc4)nn4c3COC(C(F)(F)F)C4)c12 (single isomer, unassigned) [Example 374, (*S)-3-[6-(Difluoromethyl)-3-methyl-1H-pyrazolo[3,4-b]pyridin-4-yl]-2-(4-fluorophenyl)-6-(trifluoromethyl)-6,7-dihydro-4H-pyrazolo[5,1-c][1,4]oxazine] | < 5.00 | 6.53
Cc1nc2[nH]ncc2c(-c2c(-c3ccc(F)cn3)nn3c2OC[C@H]2C[C@H]2C3)c1F (stereo in doubt) [Example 482, (5a*R,6a*S)-3-(5-Fluoro-6-methyl-1H-pyrazolo[3,4-b]pyridin-4-yl)-2-(5-fluoropyridin-2-yl)-5a,6,6a,7-tetrahydro-5H-cyclopropa[e]pyrazolo[5,1-b][1,3]oxazepine] | 7.10 | 8.10
Fc1ccc(-c2nn3c(c2-c2ccnc4[nH]ccc24)CCC3)nc1 [Example 6, 4-(2-(5-Fluoropyridin-2-yl)-5,6-dihydro-4H-pyrrolo[1,2-b]pyrazol-3-yl)-1H-pyrrolo[2,3-b]pyridine] | 7.46 | 9.00

More lines, now with the values ahead:

pIC50 (human CSNK1D) | pIC50 [1] | Compound
7.70 | 9.00 | Cc1cc(-c2c(-c3ccc(F)cn3)nn3c2OCC2(CC2)C3)c2cn[nH]c2n1 [Example 462, 2′-(5-Fluoropyridin-2-yl)-3′-(6-methyl-1H-pyrazolo[3,4-b]pyridin-4-yl)-5′H,7′H-spiro[cyclopropane-1,6′-pyrazolo[5,1-b][1,3]oxazine]]
6.63 | 7.85 | Cc1cc(-c2c(-c3ccc(F)cc3)nn3c2COCC3(C)C)c2cn[nH]c2n1 [Example 121, 2-(4-Fluorophenyl)-7,7-dimethyl-3-(6-methyl-1H-pyrazolo[3,4-b]pyridin-4-yl)-4,6-dihydropyrazolo[5,1-c][1,4]oxazine]
7.14 | 8.05 | Cc1cc(-c2c(-c3ccc(F)cc3)nn3c2COCC32CC2)c2cn[nH]c2n1 [Example 107, 2′-(4-Fluorophenyl)-3′-(6-methyl-1H-pyrazolo[3,4-b]pyridin-4-yl)-4′H,6′H-spiro[cyclopropane-1,7-pyrazolo[5,1-c][1,4]oxazine]]
7.04 | 8.15 | Cc1cc(-c2c(-c3ccc(F)cc3)nn3c2COC[C@H]3C)c2cn[nH]c2n1 (single isomer, unassigned) [Example 94, (*R)-2-(4-Fluorophenyl)-7-methyl-3-(6-methyl-1H-pyrazolo[3,4-b]pyridin-4-yl)-6,7-dihydro-4H-pyrazolo[5,1-c][1,4]oxazine]
6.55 | 7.42 | Cc1cc(-c2c(-c3ccc(F)cn3)nn3c2OCCCC3)c2cn[nH]c2n1 [Example 219, 2-(5-Fluoro-2-pyridyl)-3-(6-methyl-1H-pyrazolo[3,4-b]pyridin-4-yl)-5,6,7,8-tetrahydropyrazolo[5,1-b][1,3]oxazepane]
7.24 | 8.30 | Cc1cc(-c2c(-c3ccc(F)cc3)nn3c2C(C)(C)CC3)c2cn[nH]c2n1 [Example 246, 4-[2-(4-Fluorophenyl)-4,4-dimethyl-5,6-dihydropyrrolo[1,2-b]pyrazol-3-yl]-6-methyl-1H-pyrazolo[3,4-b]pyridine]
6.61 | 7.92 | Cc1cc(-c2c(-c3ccc(F)cn3)nn3c2CO[C@@H](C)C3)c2cn[nH]c2n1 (single isomer, unassigned) [Example 88, (*S)-2-(5-Fluoro-2-pyridyl)-6-methyl-3-(6-methyl-1H-pyrazolo[3,4-b]pyridin-4-yl)-6,7-dihydro-4H-pyrazolo[5,1-c][1,4]oxazine]
8.40 | 9.00 | Cc1cc(-c2c(-c3ccc(F)cc3)nn3c2OCC(C)C3)c2cn[nH]c2n1 (racemic) [Example 192, (R/S)-2-(4-Fluorophenyl)-6-methyl-3-(6-methyl-1H-pyrazolo[3,4-b]pyridin-4-yl)-6,7-dihydro-5H-pyrazolo[5,1-b][1,3]oxazine]
7.13 | 8.40 | Cc1nc(-c2c(-c3ccc(F)cc3)nn3c2COC(C(F)(F)F)C3)c2cn[nH]c2n1 (single isomer, unassigned) [Example 376, (*R)-2-(4-Fluorophenyl)-3-(6-methyl-1H-pyrazolo[3,4-d]pyrimidin-4-yl)-6-(trifluoromethyl)-6,7-dihydro-4H-pyrazolo[5,1-c][1,4]oxazine]
8.52 | 9.00 | CC1(C)Cn2nc(-c3ccc(F)cc3)c(-c3ccnc4[nH]ncc34)c2CO1 [Example 144, 2-(4-Fluorophenyl)-6,6-dimethyl-3-(1H-pyrazolo[3,4-b]pyridin-4-yl)-6,7-dihydro-4H-pyrazolo[5,1-c][1,4]oxazine]
